In brackets after ≈: the same amount, converted by molar mass.
How the values were obtained:
gram positive organisms = assay: activity against gram positive organisms; type: cell-based
Staphylococcus aureus = assay: MIC by agar dilution technique; type: cell-based; details: 37° C., 18 hours
Method: (§1) The minimum inhibitory concentration (MIC) of aerocavin was determined by an agar dilution technique. The test organisms were prepared from frozen stocks and diluted to give a final level of 10^7 CFU/ml (CFU is colony forming units). Aerocavin was dissolved in the appropriate diluent at a concentration of 1,000 μg/ml. Two fold dilutions were made in Yeast Beef Broth (Difco), resulting in a range from 1,000 μg/ml to 0.5 μg/ml. A 1.5 ml sample of each dilution was placed into individual petri dishes to which 13.5 ml of K-10 agar* was added. The final drug concentration in the agar ranged from 100 μg/ml to 0.05 μg/ml. Organism growth control plates containing agar only were prepared and inoculated before and after the test plates. The organisms were applied to the surface of each plate with the Denley Multipoint Inoculator (which delivers approximately 0.001 ml of each organism) resulting in a final inoculum level of 10^4 CFU on the agar surface.
(§2) The plates were incubated at 37° C. for 18 hours and the MIC's then determined. The MIC is the lowest concentration of compound inhibiting growth of the organism.
(§3) Using the methodology described for the determination of the biological activity of aerocavin, the biological activity of aerocyanidin was determined.

Escherichia coli = assay: MIC by agar dilution technique; type: cell-based; details: 37° C., 18 hours
Method: as §1, §2, §3

Pseudomonas aeruginosa = assay: MIC by agar dilution technique; type: cell-based; details: 37° C., 18 hours
Method: as §1, §2, §3

[1] = tested on: Staphylococcus epidermidis; assay: MIC by agar dilution technique; type: cell-based; details: 37° C., 18 hours
Method: as §1, with “surface. |*K-10 agar The plates were incubated at 37° C. for 18 hours and the MIC's then determined. The MIC is the lowest concentration of compound inhibiting growth of the organism.” for “surface.”

[2] = tested on: Acinetobacter calcoaceticus; assay: MIC by agar dilution technique; type: cell-based; details: SC8333, SC No. 8333, 10^4 CFU, 37° C., 18 hours
Method: as §1, with “surface. |*K-10 agar The plates were incubated at 37° C. for 18 hours and the MIC's then determined. The MIC is the lowest concentration of compound inhibiting growth of the organism.” for “surface.”

solubility = type: physicochemical
Shigella sonnei = assay: MIC by agar dilution technique; type: cell-based; details: SC8449, SC No. 8449, 10^4 CFU, 37° C., 18 hours
Method: as §1, §2, §3

Enterobacter cloacae = assay: MIC by agar dilution technique; type: cell-based; details: SC8236, SC No. 8236, 10^4 CFU, 37° C., 18 hours
Method: as §1, §2, §3

Proteus mirabilis = assay: MIC by agar dilution technique; type: cell-based; details: SC3855, SC No. 3855, 10^4 CFU, 37° C., 18 hours
Method: as §1, §2, §3

Streptococcus agalactiae = assay: MIC by agar dilution technique; type: cell-based; details: SC9287, SC No. 9287, 10^4 CFU, 37° C., 18 hours
Method: as §1, §2, §3

Salmonella typhosa = assay: MIC by agar dilution technique; type: cell-based; details: Salmonella enterica, SC1195 / TYPHOSA, 18 h
Method: as §1, §2, §3

Micrococcus luteus = assay: MIC by agar dilution technique; type: cell-based; details: SC2495, SC No. 2495, 10^4 CFU, 37° C., 18 hours
Method: as §1, §2, §3

Klebsiella pneumoniae = assay: MIC by agar dilution technique; type: cell-based; details: SC9527, SC No. 9527, 10^4 CFU, 37° C., 18 hours
Method: as §1, §2, §3

Klebsiella aerogenes = assay: MIC by agar dilution technique; type: cell-based; details: SC10440, SC No. 10440, 10^4 CFU, 37° C., 18 hours
Method: as §1, §2, §3

Streptococcus faecalis = assay: MIC by agar dilution technique; type: cell-based; details: Enterococcus faecalis, SC9011; SC No. 9011; 10^4 CFU, 37° C., 18 hours
Method: as §1, §2, §3

stability on storage = type: physicochemical; details: solid state, compared with ethyl acetate solution at 4° C.

CCCCCCCCC[C@@H](O)C[C@H]1C[C@H](O)C/C(C)=C/C/C=C/C/C(CC(=O)O)=C\C(=O)O1 (relative stereo) [aerocavin, [3E,6E,9E,12α,14β(R*)]-12-hydroxy-14-(2-hydroxyundecyl)-10-methyl-2-oxooxacyclotetradeca-3,6,9-triene-4-acetic acid]
activity against gram positive organisms (gram positive organisms): has activity against gram positive organisms | MIC (Staphylococcus aureus; SC1276, SC No. 1276, 10^4 CFU): 6.3 µg/mL (≈ 13.6 µM) | MIC (Staphylococcus aureus; SC2399, SC No. 2399, 10^4 CFU): 6.3 µg/mL (≈ 13.6 µM) | MIC (Staphylococcus aureus; SC9593, SC No. 9593 (Penicillin^R), 10^4 CFU): 6.3 µg/mL (≈ 13.6 µM) | MIC (Staphylococcus aureus; SC10016, SC No. 10016 (Tetracycline^R), 10^4 CFU): 3.1 µg/mL (≈ 6.67 µM) | MIC (Staphylococcus aureus; SC10820, SC No. 10820 (Erythromycin^R), 10^4 CFU): 3.1 µg/mL (≈ 6.67 µM) | MIC (Escherichia coli; SC8294, SC No. 8294, 10^4 CFU): 100 µg/mL (≈ 215 µM) | MIC (Escherichia coli; SC10857, SC No. 10857, 10^4 CFU): 12.5 µg/mL (≈ 26.9 µM) | MIC (Pseudomonas aeruginosa; SC9545, SC No. 9545, 10^4 CFU): 25 µg/mL (≈ 53.8 µM) | MIC ([1]; SC9052, SC No. 9052, 10^4 CFU): 6.3 µg/mL (≈ 13.6 µM) | MIC ([1]; SC10547, SC No. 10547 (Penicillin^R), 10^4 CFU): 3.1 µg/mL (≈ 6.67 µM) | MIC [2]: 12.5 µg/mL (≈ 26.9 µM) | solubility (solubility; in heptane): less soluble | solubility (solubility; in methanol, acetone, ethyl acetate): substantially soluble | solubility (solubility; in water): insoluble

[C-]#[N+][C@]1(C)O[C@@H]1[C@H](O)CCCCCCCCCC(=O)O (relative stereo) [aerocyanidin, [2α(R*),3α]-κ-hydroxy-3-isocyano-3-methyloxiraneundecanoic acid]
activity against gram positive organisms (gram positive organisms): has activity against gram positive organisms | MIC (Shigella sonnei): 25 µg/mL (≈ 88.2 µM) | MIC (Enterobacter cloacae): 50 µg/mL (≈ 176 µM) | MIC (Proteus mirabilis): 1.6 µg/mL (≈ 5.65 µM) | MIC (Streptococcus agalactiae): < 0.05 µg/mL | MIC (Salmonella typhosa): 25 µg/mL (≈ 88.2 µM) | MIC (Staphylococcus aureus; SC1276, SC No. 1276, 10^4 CFU): < 0.05 µg/mL | MIC (Staphylococcus aureus; SC2399, SC No. 2399, 10^4 CFU): < 0.05 µg/mL | MIC (Staphylococcus aureus; SC2400, SC No. 2400, 10^4 CFU): < 0.05 µg/mL | MIC (Micrococcus luteus): 0.4 µg/mL (≈ 1.41 µM) | MIC (Escherichia coli; SC8294, SC No. 8294, 10^4 CFU): > 50 µg/mL | MIC (Escherichia coli; SC10896, SC No. 10896, 10^4 CFU): 25 µg/mL (≈ 88.2 µM) | MIC (Escherichia coli; SC10909, SC No. 10909, 10^4 CFU): 1.6 µg/mL (≈ 5.65 µM) | MIC (Klebsiella pneumoniae): > 50 µg/mL | MIC (Pseudomonas aeruginosa; SC8329, SC No. 8329, 10^4 CFU): > 50 µg/mL | MIC (Klebsiella aerogenes): > 50 µg/mL | MIC (Streptococcus faecalis): 0.2 µg/mL (≈ 0.706 µM) | stability (stability on storage): less stable in the solid state

Reference: patent US4745202A, “Aerocyanidin-antibiotic” (E. R. Squibb & Sons, Inc., priority 1987, dated 1988)
